According to ChEMBL document CHEMBL1201862, “PubChem BioAssay data set” (2004):
Counter-ions that a name gives are not always drawn.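 These data come from cells grown in 96-well plates and exposed to compound for 48 hours at five concentrations. GI50: concentration for 50% inhibition of growth.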 Active and inactive are the calls of the source. Rule as the data show it: active = GI50 up to about 1.1 µM and inactive = higher. Starred links: 1 amine or outer side, 2 acyl side, 3 side chain; linkers in the order of their positions; H or OH if unused. Non-standard residues stand in square brackets, D forms with d. Residues, ends and D or L forms follow the SMILES beside them. ξ: configuration not given here. Ile(3ξ) = CCC(C)[C@H](N)C(=O)O; X35 = C=CCC(O[*:1])C(=O)[*:2]; NMeV = CN[C@H](C(=O)O)C(C)C; NMeA = CN[C@@H](C)C(=O)O; βAla = NCCC(=O)O

Assays:
Experiment in all cases: NCI-60 cell line screen, 48 h
SNB-78 = tested on: SNB-78
KM-20L2 = tested on: KM-20L2
HOP-18 = tested on: HOP-18
DLD-1 = tested on: DLD-1
XF498 = tested on: XF498
DMS-114 = tested on: DMS-114
DMS-273 = tested on: DMS-273
LXFL 529 = tested on: LXFL 529
RXF 631 = tested on: RXF 631

SMILES | GI50 (SNB-78) | GI50 (KM-20L2) | GI50 (HOP-18) | GI50 (DLD-1) | GI50 (XF498) | GI50 (DMS-114) | GI50 (DMS-273) | GI50 (LXFL 529) | GI50 (RXF 631)
O=C(O)CC(NC(=O)CP(=O)(O)O)C(=O)O (stereo not given) | 973 µM (inactive) | 158 µM (inactive) | 3100 µM (inactive) | 66.4 µM (inactive) | 596 µM (inactive) | 741 µM (inactive) | 119 µM (inactive) |  | 
CC(C)NC1CCCCC2c3ccccc3C12O (stereo not given) | > 100 µM (inactive) | > 100 µM (inactive) | > 100 µM (inactive) |  | > 100 µM (inactive) | > 100 µM (inactive) | > 100 µM (inactive) | > 100 µM (inactive) | 
Nc1nc(Cl)c2ncn(CCCC(c3ccccc3)P(=O)(O)O)c2n1 (stereo not given) | > 100 µM (inactive) | > 100 µM (inactive) | > 100 µM (inactive) | > 100 µM (inactive) |  | > 100 µM (inactive) | > 100 µM (inactive) | > 100 µM (inactive) | 
C=CCC1OC(=O)CCNC(=O)[C@H](C)N(C)C(=O)[C@H](C(C)C)N(C)C(=O)[C@H](C(C)CC)NC(=O)[C@@H]2CCCN2C1=O (stereo not given in full) (cyclo([Ile(3ξ)][NMeV][NMeA][βAla][X35]P)) | > 100 µM (inactive) | 3.18 µM (inactive) |  | 10.4 µM (inactive) | 3.65 µM (inactive) | 7.5 µM (inactive) | 3.63 µM (inactive) | 3.94 µM (inactive) | 4.92 µM (inactive)
CS(=O)(=O)Sc1ccc(Cl)cc1 | 0.713 µM (active) | 11.9 µM (inactive) | 26.8 µM (inactive) | 13.9 µM (inactive) | 10.7 µM (inactive) |  | 5.15 µM (inactive) | 11.3 µM (inactive) | 7.38 µM (inactive)
CCCCCCCCCCCc1c(O)c(=O)c2c(oc3c(=O)c(CCCCCCCCCCC)c(O)c(=O)c3n2-c2ccc(N(C)C)cc2)c1=O | 55.2 µM (inactive) | 19.3 µM (inactive) | 22.6 µM (inactive) | 18.8 µM (inactive) | 21.5 µM (inactive) | 24.8 µM (inactive) | 22.8 µM (inactive) | 21.2 µM (inactive) | 
CCN(CC)c1ccc(/N=C2\C=C(Cl)C(=O)c3ncccc32)c(C)c1 | 13.1 µM (inactive) | 5.65 µM (inactive) | 3.08 µM (inactive) | 4.06 µM (inactive) | 5.78 µM (inactive) | 2.67 µM (inactive) | 3.73 µM (inactive) |  | 13.5 µM (inactive)
O=C(CCCCCCCCC(=O)OCCCn1cc(C(=O)NC(=O)OCc2ccccc2)c(=O)[nH]c1=O)OCCCn1cc(C(=O)NC(=O)OCc2ccccc2)c(=O)[nH]c1=O | > 100 µM (inactive) | > 100 µM (inactive) | > 100 µM (inactive) | > 100 µM (inactive) |  |  | > 100 µM (inactive) |  | > 100 µM (inactive)
NCc1cc(O)c(O)c(O)c1 | > 100 µM (inactive) | > 100 µM (inactive) | > 100 µM (inactive) | > 100 µM (inactive) | > 100 µM (inactive) | > 100 µM (inactive) | > 100 µM (inactive) | > 100 µM (inactive) | > 100 µM (inactive)
CCCCC[C@@H]1CCCC2NC(CCCCCO[Si](c3ccccc3)(c3ccccc3)C(C)(C)C)CCC21 (stereo not given in full) | 15.1 µM (inactive) | 10.6 µM (inactive) |  | 13.2 µM (inactive) |  | 13 µM (inactive) | 16.8 µM (inactive) |  | 11.5 µM (inactive)
CC1=NCCc2c1[nH]c1cc(O)ccc21 [HARMALOL HYDROCHLORIDE] | > 100 µM (inactive) | > 100 µM (inactive) | > 100 µM (inactive) | > 100 µM (inactive) | > 100 µM (inactive) | > 100 µM (inactive) |  | > 100 µM (inactive) | > 100 µM (inactive)
CCCN(CCC)c1c([N+](=O)[O-])cc(C(=O)N(CC)CC)cc1[N+](=O)[O-] | 31 µM (inactive) | 18.4 µM (inactive) |  | 17.6 µM (inactive) |  | 10.9 µM (inactive) | 17.6 µM (inactive) | 19.1 µM (inactive) | 
CN(C)c1nc(Oc2nc(N(C)C)nc(N(C)C)n2)nc(N(C)C)n1 | 61.4 µM (inactive) | > 100 µM (inactive) | > 100 µM (inactive) | > 100 µM (inactive) | 84.7 µM (inactive) | 51.4 µM (inactive) | 61 µM (inactive) | > 100 µM (inactive) | 
C1=c2ccccc2=C2C(=C(c3ccccc3)C(c3ccccc3)=NN2c2ccccc2)S1 | > 100 µM (inactive) | > 100 µM (inactive) | > 100 µM (inactive) | > 100 µM (inactive) |  | > 100 µM (inactive) | > 100 µM (inactive) | > 100 µM (inactive) | 
O=c1c(Sc2c(O)c3ccccc3c3ccccc3c2=O)c(O)c2ccccc2c2ccccc12 |  | 37.4 µM (inactive) | 24.2 µM (inactive) | 51.3 µM (inactive) |  | 25.4 µM (inactive) | 25.1 µM (inactive) | 30 µM (inactive) | 37.2 µM (inactive)
CC(C)S(=O)(=O)n1c(N)nc2ccc(/C(=N/O)c3ccccc3)cc21 [ENVIROXIME] | 36.4 µM (inactive) | 16 µM (inactive) |  | 26.2 µM (inactive) |  | 16.9 µM (inactive) | 31.4 µM (inactive) | 41.4 µM (inactive) | 
O=C(O)C12C3CCCC1C2CC3 (stereo not given) | > 100 µM (inactive) | > 100 µM (inactive) | > 100 µM (inactive) | > 100 µM (inactive) | > 100 µM (inactive) | > 100 µM (inactive) |  | > 100 µM (inactive) | > 100 µM (inactive)
COc1ccc(C2=NN(C(C)=O)c3nc4ccccc4nc3O2)cc1 |  |  | 17.7 µM (inactive) | 25.4 µM (inactive) | 19.1 µM (inactive) | 42.2 µM (inactive) | 42.1 µM (inactive) | 31.4 µM (inactive) | 23 µM (inactive)
CCCCCC#COC1CC(C)CC[C@@H]1C(C)C (stereo not given in full) | > 100 µM (inactive) | 61.1 µM (inactive) | > 100 µM (inactive) | 41.3 µM (inactive) |  |  | 65 µM (inactive) | 97.9 µM (inactive) | 
Clc1ccc(/N=N/c2nc3ccccc3nc2/N=N/c2ccc(Cl)cc2Cl)c(Cl)c1 | > 100 µM (inactive) | > 100 µM (inactive) |  | > 100 µM (inactive) | > 100 µM (inactive) | > 100 µM (inactive) |  | 78.5 µM (inactive) | 
COCN/C(N)=N/C#N | > 100 µM (inactive) | > 100 µM (inactive) | > 100 µM (inactive) | 42 µM (inactive) |  | 18.4 µM (inactive) | 27.9 µM (inactive) | > 100 µM (inactive) | 
O=C1NC2OCC(O)C(O)C2O1 (stereo not given) | > 100 µM (inactive) | > 100 µM (inactive) | > 100 µM (inactive) | > 100 µM (inactive) |  | > 100 µM (inactive) | > 100 µM (inactive) | > 100 µM (inactive) | 
O=C1C(Cl)=C(Cl)C(=O)N1c1ccc(F)cc1 [FLUOROIMIDE] | 27 µM (inactive) | 22.1 µM (inactive) | 21.1 µM (inactive) | 18.2 µM (inactive) | 19.9 µM (inactive) | 19.7 µM (inactive) | 25.8 µM (inactive) | 15.9 µM (inactive) | 28.9 µM (inactive)
CCCCc1c2c(nc3c1CCC/C3=C\c1ccccc1)C(=O)C(CN(C)C)CC2 (stereo not given) | 20.7 µM (inactive) | 17.8 µM (inactive) | 23.6 µM (inactive) | 17.1 µM (inactive) | 14.9 µM (inactive) | 17.7 µM (inactive) | 20.2 µM (inactive) | 8.38 µM (inactive) | 
CC(O)C1OC(n2ccc(=O)[nH]c2=O)CC1n1cncn1 (stereo not given) |  | > 100 µM (inactive) |  | > 100 µM (inactive) | > 100 µM (inactive) | > 100 µM (inactive) | > 100 µM (inactive) | > 100 µM (inactive) | 
